Data published in PubChem BioAssay (NCI).
Values joined by “and” are separate entries in the source; they are usually repeats but may differ in a detail not shown here. Equal entries are not always repeated.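 These data come from cells grown in 96-well plates and exposed to compound for 48 hours at five concentrations. GI50: concentration for 50% inhibition of growth. The concentration for full growth arrest is given as TGI.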

Tests used:
Test in all cases: DTP human tumour cell line panel, 48 h
[1] = system: SK-OV-3 ovarian
[2] = system: SN12C renal
[3] = system: NCI-H522 lung
[4] = system: NCI-H23 lung
[5] = system: SK-MEL-5 melanoma
[6] = system: LOX IMVI melanoma
[7] = system: HOP-92 NSCLC
[8] = system: SF-539 CNS
[9] = system: T-47D breast
[10] = system: MDA-MB-435

Row | SMILES | TGI [1] | TGI [2] | TGI [3] | TGI [4] | TGI [5] | TGI [6] | TGI [7] | TGI [8] | GI50 [1] | GI50 [9] | GI50 [3] | GI50 [7] | TGI [10] | GI50 [2] | GI50 [4] | GI50 [5] | GI50 [6] | GI50 [10] | GI50 [8] | TGI [9]
1 | COc1ccccc1OCC(COC(=O)Nc1ccccc1)OC(=O)Nc1ccccc1 (stereo unspecified) | > 100 µM | > 100 µM | > 100 µM | > 100 µM | > 100 µM | > 100 µM | 28.7 µM | 33.4 µM |  |  |  |  |  |  |  |  |  |  |  | 
2 | Cc1c(CNc2ccc(C(=O)NC(CCCNC(=O)c3ccccc3C(=O)O)C(=O)O)cc2)cnc2nc(N)nc(N)c12 (stereo unspecified) | > 100 µM | > 100 µM |  |  |  |  |  |  | > 100 µM | > 100 µM | 0.00428 µM | > 100 µM |  |  |  |  |  |  |  | 
3 | CC(C(=O)OCc1ccccc1)N(Cc1ccccc1)Cc1ccccc1 (stereo unspecified) | > 100 µM | > 100 µM | > 100 µM | > 100 µM | > 100 µM |  | > 100 µM | > 100 µM |  |  |  |  |  |  |  |  |  |  |  | 
4 | COc1ccc(C#Cn2nnc3ccccc32)cc1 |  | > 100 µM | > 100 µM | > 100 µM | > 100 µM | > 100 µM | > 100 µM | > 100 µM |  |  |  |  | > 100 µM |  |  |  |  |  |  | 
5 | O=C(CCN1CCOCC1)/C(=C/c1ccccc1)c1ccccc1 | 43.3 µM | 14.5 µM | 3.84 µM | 14.1 µM | 21.5 µM | 7.42 µM | 13 µM | 9.31 µM |  |  |  |  |  |  |  |  |  |  |  | 
6 | CC[C@@]1(O)C(=O)OCc2c1cc1n(c2=O)Cc2c-1nc1ccc(O)cc1c2[Si](C)(C)C(C)(C)C | > 53 µM | < 0.0233 µM | 0.135 µM | 0.0274 µM | 0.0387 µM | 0.163 µM | 2.31 µM | < 0.01 µM |  |  |  |  | 1.65 µM |  |  |  |  |  |  | 
7 | CSC(SC)=C(C#N)C(=O)Nc1cccc(Cl)c1 | > 100 µM | > 100 µM | 43.8 µM |  | 40.7 µM | > 100 µM | 55.6 µM | > 100 µM |  |  |  |  | > 100 µM |  |  |  |  |  |  | 
8 | C#CC[C@@]12CC(=O)C[C@@H]1CCC1(C2)OCCO1 (tested in a mixture with another compound) | > 100 µM | > 100 µM | > 100 µM | > 100 µM | > 100 µM | > 100 µM | > 100 µM | > 100 µM |  |  |  |  |  |  |  |  |  |  |  | 
9 | O=c1c2cc(C(F)(F)F)ccc2sc2c(NCCCNCCO)nc3ccccc3c12 |  | 3.12 µM |  | 3.02 µM | 3.01 µM | 2.7 µM | 2.4 µM | 3.03 µM |  |  |  | 1.08 µM | 3.04 µM | 1.64 µM | 1.58 µM | 1.62 µM | 1.35 µM | 1.62 µM | 1.6 µM | 
10 | O=C(COc1ccc(OCC(=O)N2C(=O)CC(=O)N(c3ccc(Cl)cc3)C2=S)cc1)N1C(=O)CC(=O)N(c2ccc(Cl)cc2)C1=S | > 100 µM | > 100 µM | 53.8 µM | > 100 µM | > 100 µM |  | 70.4 µM |  |  |  |  |  | > 100 µM |  |  |  |  |  |  | 
11 | CCN1C/C(=C\c2ccc(Cl)cc2)c2nc(N)c(C#N)c(-c3ccc(Cl)cc3)c2C1 | > 100 µM |  | > 100 µM | > 100 µM | > 100 µM | > 100 µM |  |  |  |  |  |  | > 100 µM |  |  |  |  |  |  | 
12 | O=C(NNC(=S)Nc1ccccc1)c1nsc2ccccc12 |  | > 100 µM |  | > 100 µM | > 100 µM | > 100 µM | 90.5 µM | 97.8 µM |  |  |  |  |  |  |  |  |  |  |  | 
13 | CCn1c(=O)c2nc(SC)sc2n(-c2ccc(C)cc2)c1=O | > 100 µM | > 100 µM | > 100 µM | > 100 µM | > 100 µM | > 100 µM | > 100 µM | > 100 µM |  |  |  |  |  |  |  |  |  |  |  | > 100 µM
14 | O=C(O)CCC(=O)OCN1C(=O)C2C3C=CC(C2C1=O)C1C2C(=O)N(COC(=O)CCC(=O)O)C(=O)C2C31 (stereo unspecified) | > 100 µM | > 100 µM | > 85.8 µM | > 100 µM | > 100 µM | > 63 µM | > 100 µM | > 100 µM |  |  |  |  |  |  |  |  |  |  |  | 
15 | O=C1c2cc(Cc3ccccc3)c(=O)c(Cc3ccccc3)cc2C(=O)c2cc(Cc3ccccc3)c(=O)c(Cc3ccccc3)cc21 |  | > 100 µM | > 100 µM | > 100 µM | > 100 µM | > 100 µM | > 100 µM | > 100 µM |  |  |  |  | > 100 µM |  |  |  |  |  |  | 
16 | CC(C)(C)C1CCC2c3c([nH]c4ccccc34)C3C(=O)N(c4ccc(C#N)cc4)C(=O)C3C2C1 (stereo unspecified) | > 100 µM | 21.4 µM |  | 23.6 µM | 25.5 µM | 34.6 µM | 22.6 µM | 43.2 µM |  |  |  |  | > 100 µM |  |  |  |  |  |  | 
17 | O=P1(N2CCOCC2)OCCO1 |  | > 100 µM | > 100 µM | > 100 µM | > 100 µM | > 100 µM | > 100 µM |  |  |  |  |  | > 100 µM |  |  |  |  |  |  | 
18 | N#CC(CCN1CCC(Nc2ccccc2)(c2nnnn2C2CCCCC2)CC1)(c1ccccc1)c1ccccc1 | > 100 µM | > 100 µM | > 100 µM | > 100 µM | > 100 µM | > 100 µM |  | > 100 µM |  |  |  |  | > 100 µM |  |  |  |  |  |  | 
19 | CC(C)(C)c1ccc(C(O)CCCN2CCC(C(O)(c3ccccc3)c3ccccc3)CC2)cc1 (stereo unspecified) |  |  | 3.31 µM and 21.2 µM |  | 2.93 µM and 23.5 µM | 2.82 µM | 2.6 µM |  |  |  | 1.83 µM and 13.6 µM | 1.2 µM |  |  |  | 1.59 µM and 13.8 µM | 1.5 µM |  |  | 
